Measurements from patent US4619939A, “Process for reducing intraocular pressure” (priority 1985, dated 1986).
Read-outs that look alike come from different tables or passages of the source.

Assays:
[1] = stability in solution; type: physicochemical
Excerpt: The final property which is necessary for a compound used in this invention is that it be stable against decomposition in solution and in contact with the cornea. This property may be tested by dissolving the compound in aqueous solution and in solution containing corneal tissue to determine whether the compound has remained stable or has decomposed into other materials.

[2] = chloroform partition coefficient at pH 7.2; type: physicochemical
Protocol: Another critical property necessary in the inhibitors employed in this invention is the chloroform partition coefficient which must be at least 0.01. This property also relates to the lipid solubility of the compound employed and it is measured as described above with respect to ether. The procedure is the same as that described above except that chloroform is employed in place of ether.

[3] = ether partition coefficient at pH 7.2; type: physicochemical
Protocol: This property in conjunction with the chloroform coefficient is a measure of the lipid solubility of this compound. This is a critical feature since the compound must be readily absorbed by the lipid materials in the eye and be available for intimate contact with carbonic anhydrase so as to control its activity. This property is measured by preparing an aqueous solution of the compound at pH 7.2 and shaking the solution with an equal volume of ether until equilibrium is achieved in the system. An ether layer and an aqueous layer are formed, separated, and each analyzed for its content of the compound. The coefficient is the ratio of the amount of the compound in the ether layer to the amount of the compound in the aqueous layer. See, e.g., Maren, J. Pharm. […] Therap. Vol. 130, p.

[4] = injury to the cornea; type: in vivo; conditions: 2-5% solution
Excerpt: Still another critical property of the compounds employed in this invention is that they be pharmaceutically acceptable and not be injurious to the cornea being treated.

[5] = pKa by titration with NaOH; type: physicochemical
Excerpt: The pKa may be measured by titrating the compound with NaOH and finding the point at which half of the compound is neutralized. The pH at this point is the pKa.

[6] = first order rate constant for penetration through living rabbit cornea; type: in vivo
Protocol: Still another critical property of the inhibitor compounds employed in this invention is that the compound must have a first order rate constant for penetration of the compound through a living rabbit cornea of at least 0.005 hr^-1. This property is important in that it sets a standard for a speed in which the inhibitor will pass through the cornea to the interior of the eye and be available to inhibit the activity of carbonic anhydrase in that location. This is measured by placing a solution of the compound (about 0.5 ml) on the cornea of the living, lightly anesthetized rabbit. The lids are held by light hemostats in such a way as to create a well to hold the solution so that a steady state concentration is achieved. At timed intervals, samples are withdrawn from the anterior chamber of the rabbit and the fluid analyzed for the concentration of drug. The analyses are done by the method of Maren, supra. The data are treated to yield the first order rate constants which are cited herein.

[7] = topical administration of prior art inhibitors, intraocular pressure; type: in vivo
[8] = solubility in water; conditions: for ability to form an aqueous solution of sufficient concentration for topical use: near neutral pH
[9] = molecular target: carbonic anhydrase (Homo sapiens, UniProt P00918); assay: dissociation constant against carbonic anhydrase; type: biochemical
Excerpt: The dissociation constant is the concentration of the compound that will inhibit one-half of the carbonic anhydrase in a test system wherein the conditions are so arranged that the compound is present in excess of the carbonic anydrase.

[10] = Foss 1955; cited from earlier work

| SMILES | stability in solution [1] | chloroform partition coefficient [2] | ether partition coefficient [3] | injury or clouding of the cornea [4] | pKa [5] | in vivo rabbit cornea penetration rate constant [6] | reduction of intraocular pressure by topical application [7] | ability to form an aqueous solution of sufficient concentration for topical use [8] | pKa ([5]; read-out: pKa) | further results |
| --- | --- | --- | --- | --- | --- | --- | --- | --- | --- | --- |
| Cn1nc(S(N)(=O)=O)sc1=NC(=O)C(F)(F)F [trifluoromethazolamide, 2-trifluoroacetylimino-3-methyl-Δ^2-1,3,4-thiadiazoline-5-sulfonamide] | stable in solution for two hours | 0.3 | 6.0 | does not injure or cloud the cornea | 6.6 | 0.014 h⁻¹ |  |  |  |  |
| CC(=O)/N=c1/sc(S(N)(=O)=O)nn1C [Methazolamide, 2-acetylimino-3-methyl-Δ^2-1,3,4-thiadiazoline-5-sulfonamide] |  |  |  |  | 7.4 |  | not reduced except to a very slight extent in one of the series of tests | cannot be made into a neutral solution with a sufficiently high concentration |  |  |
| Cn1nc(S(N)(=O)=O)sc1=NC(=O)C(Cl)(Cl)Cl [trichloromethazolamide, 2-trichloroacetylimino-3-methyl-Δ^2-1,3,4-thiadiazoline-5-sulfonamide] | stable in solution for at least six hours | 4 | 56 | does not injure or cloud the cornea |  | 0.063 h⁻¹ |  |  | 7 | Ki [9]: 0.02 µM |
| CC(=O)Nc1nnc(S(N)(=O)=O)s1 [acetazolamide, 2-acetylamino-1,3,4-thiadiazole-5-sulfonamide] |  |  |  |  |  |  |  | cannot be made into a water solution below pH 8 at concentrations sufficiently high |  | lowering intraocular pressure by topical administration [10]: completely unsuitable |
| CCOc1ccc2nc(S(N)(=O)=O)sc2c1 [ethoxzolamide, 6-ethoxy-benzothiazole-2-sulfonamide] |  |  |  |  | 8.1 |  | ineffective |  |  | solubility ([8]; water): ≤ 40 µg/mL |
| NS(=O)(=O)c1nnc(-c2ccccc2Cl)s1 [2-orthochlorophenylthiadiazole-5-sulfonamide] | stable in solution |  |  |  |  | 0.3 h⁻¹ |  |  | 7.3 |  |
